Measurements taken from PMC6556873, “Rapid Covalent-Probe Discovery by Electrophile-Fragment Screening” (Journal of the American Chemical Society, 2019).
Like-named read-outs stand apart in the source and are kept apart here.

Key:
BSA = molecular target: T1, BSA (Bos taurus, UniProt P02769); design: Intact protein LC/MS covalent labelling, fragments in pools of five, 200 uM each, 4 °C; conditions: 24 h, 4 °C, pool of five; 200 µM; covalent
T1 construct: gene ALB

NUDT7 = molecular target: T2, NUDT7 (Homo sapiens, UniProt P0C024); design: Intact protein LC/MS covalent labelling, fragments in pools of five, 200 uM each, 4 °C; conditions: 24 h, 4 °C, pool of five; 200 µM; covalent
T2 construct: residues 14-235, E. coli, pNIC28-Bsa4, N-terminal His6 tag removed by TEV, construct 26672 Da
T2 sequence (P0C024 14-235): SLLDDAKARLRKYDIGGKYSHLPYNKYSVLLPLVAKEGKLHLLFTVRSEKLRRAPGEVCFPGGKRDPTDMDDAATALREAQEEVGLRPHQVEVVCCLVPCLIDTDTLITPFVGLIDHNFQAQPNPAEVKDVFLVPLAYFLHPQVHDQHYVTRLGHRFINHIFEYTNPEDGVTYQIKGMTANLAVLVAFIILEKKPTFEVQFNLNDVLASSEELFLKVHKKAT

OTUB2 (OTUB2A) = molecular target: T3, OTUB2 (OTUB2A) (Homo sapiens, UniProt Q96DC9); design: Intact protein LC/MS covalent labelling, fragments in pools of five, 200 uM each, 4 °C; conditions: 24 h, 4 °C, pool of five; 200 µM; covalent
T3 construct: full length residues 1-234, E. coli BL21(DE3)-R3, His tag removed by TEV, construct 27312 Da
T3 sequence (Q96DC9 1-234): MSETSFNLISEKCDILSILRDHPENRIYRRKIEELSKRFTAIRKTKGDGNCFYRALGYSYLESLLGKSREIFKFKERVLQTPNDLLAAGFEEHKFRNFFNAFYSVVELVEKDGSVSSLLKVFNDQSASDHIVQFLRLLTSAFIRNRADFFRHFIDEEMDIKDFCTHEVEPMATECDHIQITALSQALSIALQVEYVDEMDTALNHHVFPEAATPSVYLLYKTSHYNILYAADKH

PCAF = molecular target: T4, PCAF (Homo sapiens, UniProt Q92831); design: Intact protein LC/MS covalent labelling, fragments in pools of five, 200 uM each, 4 °C; conditions: 24 h, 4 °C, pool of five; 200 µM; covalent
T4 construct: gene KAT2B
T4 sequence (Q92831 whole entry, the tested form may be a part): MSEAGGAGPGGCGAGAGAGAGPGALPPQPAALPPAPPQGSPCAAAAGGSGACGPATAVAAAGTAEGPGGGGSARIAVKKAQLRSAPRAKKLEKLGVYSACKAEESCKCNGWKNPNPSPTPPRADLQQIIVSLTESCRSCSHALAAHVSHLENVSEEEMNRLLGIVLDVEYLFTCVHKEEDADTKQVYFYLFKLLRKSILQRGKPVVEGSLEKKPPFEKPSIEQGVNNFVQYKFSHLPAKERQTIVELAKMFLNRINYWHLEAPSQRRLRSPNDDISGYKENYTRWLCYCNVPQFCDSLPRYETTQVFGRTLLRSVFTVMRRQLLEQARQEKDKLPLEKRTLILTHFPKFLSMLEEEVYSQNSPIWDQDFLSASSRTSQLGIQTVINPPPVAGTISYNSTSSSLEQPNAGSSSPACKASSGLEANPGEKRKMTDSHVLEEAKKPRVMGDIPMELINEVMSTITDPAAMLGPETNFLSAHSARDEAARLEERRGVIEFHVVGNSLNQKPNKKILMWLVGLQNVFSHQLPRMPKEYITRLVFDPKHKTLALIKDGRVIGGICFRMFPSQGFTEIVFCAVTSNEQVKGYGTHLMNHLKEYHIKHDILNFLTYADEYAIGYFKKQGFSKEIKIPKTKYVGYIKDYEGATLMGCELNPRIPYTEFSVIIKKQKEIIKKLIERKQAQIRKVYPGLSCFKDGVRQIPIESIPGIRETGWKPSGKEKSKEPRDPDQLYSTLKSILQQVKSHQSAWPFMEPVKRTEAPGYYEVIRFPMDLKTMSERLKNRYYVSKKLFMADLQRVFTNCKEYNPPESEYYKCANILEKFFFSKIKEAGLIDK

in vitro [1] = experiment: in vitro; design: species or system CCD841, HEK293; conditions: human, hb2 cells, read-out: HB-2 Cells Viability (%)
in vitro [2] = experiment: in vitro; design: species or system HB2, HEK293; conditions: human, ccd841 cells
in vitro [3] = experiment: in vitro; design: species or system HB2, CCD841; conditions: human, hek293 cells

T1 sequence (P02769 whole entry, the tested form may be a part): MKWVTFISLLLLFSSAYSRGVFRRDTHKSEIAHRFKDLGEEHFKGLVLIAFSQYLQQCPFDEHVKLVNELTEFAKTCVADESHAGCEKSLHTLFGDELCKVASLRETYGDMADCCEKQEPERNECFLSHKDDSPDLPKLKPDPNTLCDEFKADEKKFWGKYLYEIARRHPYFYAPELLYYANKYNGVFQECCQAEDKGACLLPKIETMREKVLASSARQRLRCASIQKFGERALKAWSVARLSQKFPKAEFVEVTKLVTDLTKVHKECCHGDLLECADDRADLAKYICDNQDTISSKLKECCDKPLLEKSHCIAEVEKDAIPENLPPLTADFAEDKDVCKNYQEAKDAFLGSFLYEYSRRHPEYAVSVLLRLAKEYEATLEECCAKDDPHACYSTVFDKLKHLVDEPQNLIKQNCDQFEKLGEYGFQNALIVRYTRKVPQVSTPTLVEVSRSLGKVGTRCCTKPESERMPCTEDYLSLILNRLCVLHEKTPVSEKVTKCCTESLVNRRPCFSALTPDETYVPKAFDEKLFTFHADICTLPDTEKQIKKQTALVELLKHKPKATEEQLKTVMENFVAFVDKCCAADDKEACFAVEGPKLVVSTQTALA

BSA (BSA) | NUDT7 (NUDT7) | OTUB2 (OTUB2 (OTUB2A)) | PCAF (PCAF) | Compound | viability at 48 h, 10 µM (in vitro [1]) [%] | viability at 48 h, 10 µM (in vitro [2]) [%] | viability at 48 h, 10 µM (in vitro [3]) [%]
0 | 0.12 | 0.28 | 0 | CC(NC(=O)CCl)c1ccc2c(c1)OCO2 (stereo not shown) [PCM-0103030] | 89.2 | 102 | 78.2
0 | 0.88 | 0.18 | 0 | Cc1ccc2nc(NC(=O)CCl)sc2c1 [PCM-0103031] | 70.6 | 74.9 | 79.2
0 | 0.22 | 0.21 | 0 | Cl.O=C(CCl)N1CCN(c2cccc(Cl)c2)CC1 [PCM-0103032] | 12 | 71.1 | 58.5
0 | 0 | 0.23 | 0 | N#Cc1cccc(NC(=O)CCl)c1 [PCM-0103033] | 6.3 | 19.1 | 7.4
0 | 0 | 0.3 | 0 | O=C(CCl)NC(=O)NCC(F)(F)F [PCM-0103037] | 89 | 78.2 | 95.7
0 | 0 | 0.09 | 0 | O=C(CCl)N1CC=C(c2ccccc2)CC1 [PCM-0103038] | 90.9 | 86.8 | 89.2
0 | 0.06 | 0 | 0 | C=CC(=O)Nc1cc(F)cc(F)c1 [PCM-0103039] | 86.7 | 93.3 | 67.1
0 | 0 | 0 | 0 | O=C(CCl)Nc1ccc(F)cc1Cl [PCM-0103040] | 76.9 | 68.7 | 60.3
0.11 | 0 | 0 | 0 | C=CC(=O)N1CCCC(c2ncc3n2CCCC3)C1 (stereo not shown) [PCM-0103042] | 95.6 | 108 | 97.1
0 | 0.06 | 0.27 | 0 | COc1ccc(C)cc1NC(=O)CCl [PCM-0103043] | 81.3 | 79.1 | 63.7
0 | 0 | 0.08 | 0 | C=CC(=O)NCc1c2c(nn1C)CCCC2 [PCM-0103044] | 97.2 | 98.1 | 74.2
0 | 0 | 0 | 0 | O=C(CCl)NC1CCOCC1 [PCM-0103045] | 100 | 77.7 | 110
0 | 0.3 | 0 | 0 | CCC1c2ccsc2CCN1C(=O)CCl (stereo not shown) [PCM-0103051] | 13.5 | 14 | 6
0 | 0.12 | 0.09 | 0 | Cc1nc(-c2ccc(C)c(NC(=O)CCl)c2)n[nH]1 [PCM-0103052] | 57 | 43.4 | 39.1
0.08 | 0 | 0 | 0 | C=CC(=O)NC1(C(=O)N2CCN(C)CC2)CCCC1 [PCM-0103054] | 99.9 | 109 | 110
0 | 0 | 0 | 0 | Cc1cc(NC(=O)CCl)n(C(C)(C)C)n1 [PCM-0103057] | 76.3 | 61.7 | 58.6
0 | 0 | 0 | 0 | C=CC(=O)NC1CCN(C(=O)NCC)C1 (stereo not shown) [PCM-0103058] | 94.4 | 93.3 | 109
0 | 0 | 0.07 | 0 | C=CC(=O)N1CC(Oc2ccc(C#N)cc2)C1 [PCM-0103059] | 98.1 | 90.8 | 73.3
0 | 0.28 | 0.14 | 0 | O=C(CCl)NNC(=O)C1CCC1 [PCM-0103061] | 8.2 | 30.9 | 2.3
0 | 0 | 0 | 0 | O=C(CCl)NC1CCSC1=O (stereo not shown) [PCM-0103062] | 97.6 | 88.2 | 90.7
0 | 0.07 | 0.35 | 0 | Cl.O=C(CCl)N1CCN(Cc2ccccc2)CC1 [PCM-0103063] | 72.1 | 81.1 | 60.1
0 | 0.65 | 0 | 0 | O=C(CCl)N1CCC(c2nc3ccccc3s2)CC1 [PCM-0103068] | 17.4 | 46 | 15.4
0 | 0 | 0 | 0 | C=CC(=O)N1CCCC(c2nc3c(s2)CCCC3)C1 (stereo not shown) [PCM-0103069] | 98.5 | 104 | 79.4
0 | 0 | 0 | 0 | COCC(=O)NNC(=O)CCl [PCM-0103070] | 95.3 | 85.8 | 97.1
0 | 0.4 | 0 | 0 | O=C(CCl)N1CCCc2cccc(F)c21 [PCM-0103071] | 62.4 | 65.9 | 25.1
0 | 0 | 0 | 0 | C=CC(=O)NC(c1cnn(C)c1)C(F)(F)F (stereo not shown) [PCM-0103073] | 99.5 | 107 | 94.4
0 | 0 | 0 | 0 | C=CC(=O)N1CCc2c(ncn(CC)c2=O)C1 [PCM-0103074] | 101 | 115 | 100
0 | 0 | 0 | 0 | C=CC(=O)NCc1snnc1C [PCM-0103079] | 104 | 102 | 97
